This note sets out measurements from patent publication US20250195530A1, “POLQ INHIBITORS” (ASTRAZENECA AB, priority 2022, published 2025).

Read-outs that look alike come from different tables or passages of the source.

In the assay the test system is DLD-1 BRCA2−/− cells. Description: Homologous recombination synthetic lethal inhibition of proliferation, DLD-1 BRCA2-/- (Cell Titre Glo 3D). It is filed as cell-based. As to conditions: for IC50: Homo sapiens. From the text:
This assay identifies anti-proliferative effects of POLQ compounds in the homologous recombination deficient colorectal cell line DLD-1 BRCA2−/− over 8-9 population doublings (7 days for DLD-1 and 12 days for DLD-1 BRCA2−/−). DLD1 BRCA2 wt are used as a control to detect cell toxic effects not specific to homologous recombination deficiency.
DLD-1 BRCA2−/− and DLD-1 cells were kept in continuous culture in Assay Medium (RPMI 1640 phenol red free (Sigma R7509) containing 1% GlutaMAX (Gibco 35050) and 10% Foetal Bovine Serum (Gibco 10270-106)). On the day of the assay cells in culture of ˜80-90% confluent were used. Cell monolayers were washed with 10 mL PBS, then removed and added 2 mL TrypLE Express (Gibco 12604). The cells with TrypLE Express were incubated for 5 minutes in cell culture incubator and then the detached cells resuspend in 15 mL Assay Medium. Cells were counted using a ViCell and the cell images were monitored for clumps of cells, ideally they should be single or <3 cell clusters. The cells were diluted to 3,000 cells/mL of DLD-1 BRCA2−/− and 1,500 cells/mL of DLD-1 in Assay Medium and 100 μL added per well of transparent bottomed, black, tissue culture-treated 96-well plates (CoStar, No. 3904) Assay Ready Plates. The Assay Ready Plates contain a 10 point 10 μM to 0.51 nM dose range with three-fold dilutions in DMSO with a final volume of 100 nL. The plates were incubated at 37° C. with 5% C02 for 6 days. On day 6, 100 μL/well of Assay Medium was added to duplicate Assay Ready Plates. 90 μL of culture medium was removed from the cell plates and replenished with the Assay Media and compounds from the duplicate Assay Ready Plates using the Bravo. The plates were further incubated at 37° C. with 5% CO2. On day 7 the plates containing DLD-1 and Cell Titre Glo 3D (Promega G9683) were equilibrated to room temperature, then 60 μL of Cell Titre Glo 3D was added per well and incubated on a shaking platform for 30 min. Plates were read on the Envision measuring luminescence for 1 second per well. On day 12 the plates containing DLD-1 BRCA2−/− cells and Cell Titre Glo 3D (Promega G9683) were equilibrated to room temperature, then 60 μL Cell Titre Glo 3D added per well and incubated on a shaking platform for 30 min. Plates were read on the Envision measuring luminescence for 1 second per well. The data was exported into a suitable software package (such as Genedata) to perform curve fitting analysis. Inhibition of cell proliferation was expressed as an IC5o value and was determined by calculation of the concentration of compound that was required to give a 50% reduction of the average maximum Total Intensity signal.

Where [1] appears, read: DLD-1, first proliferation column (c5), taken as DLD-1 BRCA2-/-, read-out: POLQ PD Prolif Lumin (converted).
[2] abbreviates: DLD-1, first proliferation column (c5), DLD-1 BRCA2-/-, read-out: POLQ PD Prolif Lumin (converted).
The mark [3] stands for this setting: DLD-1, DLD-1 BRCA2 −/− cells, mean, read-out: POLQ PD Prolif Lumin BRCA2 −/− mean pIC50 (converted).
The mark [4] stands for this setting: DLD-1, DLD-1 BRCA2-/- proliferation, column head only partly shown, read-out: POLQ PD Prolif Lumin (converted).

As to `Cc1ccnc(Cn2c(-c3ccc(N4CCNCCC4=O)cc3Cl)nc3c(OC4(C)CC4)ncnc32)c1` [Example T338, 4-(3-chloro-4-(6-(1-methylcyclopropoxy)-9-((4-methylpyridin-2-yl)methyl)-9H-purin-8-yl)phenyl)-1,4-diazepan-5-one], the IC50 under setting [1] is 2000 nM.

As for `Cc1ccnc(Cn2c(-c3ccc(O[C@@H]4CNC(=O)C4)cc3Cl)nc3c(OC4(C)CC4)ncnc32)c1` [Example T184, (S)-4-(3-chloro-4-(6-(1-methylcyclopropoxy)-9-((4-methylpyridin-2-yl)methyl)-9H-purin-8-yl)phenoxy)pyrrolidin-2-one], under setting [2], the IC50 was 251 nM.

As for `CC1NCCN(CCOc2ccc(-c3nc4c(OC5(C)CC5)ncnc4n3Cc3ccccc3)c(Cl)c2)C1=O` (single isomer, unassigned; isomer 1) [Example R13, 1-(2-(4-(9-benzyl-6-(1-methylcyclopropoxy)-9H-purin-8-yl)-3-chlorophenoxy)ethyl)-3-methylpiperazin-2-one (Isomer 1)], the IC50 (DLD-1, 288 h, DLD-1 BRCA2−/− cells, 12 days, read-out: POLQ PD Prolif Lumin BRCA2 −/− mean pIC50 (converted)) was 200 nM.

Regarding `Cc1ccnc(Cn2c(-c3ccc(OCCN4CCNCC4=O)cc3Cl)nc3c(OC4(C)CC4)ncnc32)c1` [Example T498, 1-(2-(3-chloro-4-(6-(1-methylcyclopropoxy)-9-((4-methylpyridin-2-yl)methyl)-9H-purin-8-yl)phenoxy)ethyl)piperazin-2-one], the IC50 under setting [2] was 316 nM.

In the case of `Cc1ccnc(Cn2c(-c3ccc(OCC(=O)N4CC(O)C4)cc3Cl)nc3c(OC4(C)CC4)ncnc32)c1` [Example T322, 2-(3-chloro-4-(6-(1-methylcyclopropoxy)-9-((4-methylpyridin-2-yl)methyl)-9H-purin-8-yl)phenoxy)-1-(3-hydroxyazetidin-1-yl)ethan-1-one], the IC50 under setting [1] is 631 nM.

On to `CC1(Oc2ncnc3c2nc(-c2ccc(CCCCC(=O)O)cc2Cl)n3Cc2ccccc2C#N)CC1` [Example U20, 5-(3-chloro-4-(9-(2-cyanobenzyl)-6-(1-methylcyclopropoxy)-9H-purin-8-yl)phenyl)pentanoic acid], for which, where the note is “DLD-1, DLD-1 BRCA2 −/−, mean, read-out: POLQ PD Prolif Lumin BRCA2 −/− mean pIC50 (converted)”, the IC50 is 251 nM.

On to `Cc1ccnc(Cn2c(-c3ccc(C(=O)N4CC(O)C4)cc3Cl)nc3c(OC4(C)CC4)ncnc32)c1` [Example T180, (3-chloro-4-(6-(1-methylcyclopropoxy)-9-((4-methylpyridin-2-yl)methyl)-9H-purin-8-yl)phenyl)(3-hydroxyazetidin-1-yl)methanone], for which the IC50 under setting [2] is 1000 nM.

For `CC1(Oc2ncnc3c2nc(-c2ccc(CC(N)=O)cc2Cl)n3CCc2ccccc2)CC1` [Example T102, 2-(3-chloro-4-(6-(1-methylcyclopropoxy)-9-phenethyl-9H-purin-8-yl)phenyl)acetamide], the IC50 under setting [3] was 1580 nM.

Turning to `Cc1cc(OCCCN(C)C)ccc1-c1nc2c(OC3(C)CC3)ncnc2n1Cc1cc(Cl)ccn1` [Example T387, 3-(4-(9-((4-chloropyridin-2-yl)methyl)-6-(1-methylcyclopropoxy)-9H-purin-8-yl)-3-methylphenoxy)-N,N-dimethylpropan-1-amine], under setting [1], the IC50 is 158 nM.

As to `CC1(Oc2ncnc3c2nc(-c2ccc(O[C@H]4CC[C@H](C(=O)O)CC4)cc2Cl)n3Cc2cc(Cl)ccc2F)CC1` [Example U49, (1r,4r)-4-(3-chloro-4-(9-(5-chloro-2-fluorobenzyl)-6-(1-methylcyclopropoxy)-9H-purin-8-yl)phenoxy)cyclohexane-1-carboxylic acid], under “DLD-1 BRCA2 −/−, mean”, the “POLQ PD Prolif Lumin BRCA2 −/− mean pIC50” value is reported as 7.3.

`CC1(Oc2ncnc3c2nc(-c2ccc(CC(N)=O)cc2Cl)n3Cc2nc(C3CC3)no2)CC1` [Example T23, 2-(3-chloro-4-(9-((3-cyclopropyl-1,2,4-oxadiazol-5-yl)methyl)-6-(1-methylcyclopropoxy)-9H-purin-8-yl)phenyl)acetamide]: the IC50 under setting [3] was 1260 nM.

In the case of `CC1(Oc2ncnc3c2nc(-c2ccc(OCCO)cc2Cl)n3Cc2cc(C(F)(F)F)ccn2)CC1` [Example T44, 2-(3-chloro-4-(6-(1-methylcyclopropoxy)-9-((4-(trifluoromethyl)pyridin-2-yl)methyl)-9H-purin-8-yl)phenoxy)ethan-1-ol], the IC50 under setting [3] is 251 nM.

With `CC1(Oc2ncnc3c2nc(-c2ccc(CC(N)=O)cc2Cl)n3Cc2cccnc2C(F)(F)F)CC1` [Example T37, 2-(3-chloro-4-(6-(1-methylcyclopropoxy)-9-((2-(trifluoromethyl)pyridin-3-yl)methyl)-9H-purin-8-yl)phenyl)acetamide], the IC50 under setting [3] is over 10000 nM.

On to `CC(=O)N1CC[C@@H](Oc2ccc(-c3nc4c(OC5(C)CC5)ncnc4n3Cc3cc(C)ccn3)c(Cl)c2)C1` [Example T472, (R)-1-(3-(3-chloro-4-(6-(1-methylcyclopropoxy)-9-((4-methylpyridin-2-yl)methyl)-9H-purin-8-yl)phenoxy)pyrrolidin-1-yl)ethan-1-one], for which, under “DLD-1, proliferation, luminescence, taken as DLD-1 BRCA2-/-, read-out: POLQ PD Prolif Lumin (converted)”, the IC50 was 200 nM.

Take `Cc1ccnc(Cn2c(-c3ccc(OCCCO)cc3Cl)nc3c(OC4(C)CC4)ncnc32)c1` [Example T124, 3-(3-chloro-4-(6-(1-methylcyclopropoxy)-9-((4-methylpyridin-2-yl)methyl)-9H-purin-8-yl)phenoxy)propan-1-ol]: the IC50 under setting [2] was 79.4 nM.

Consider `Cc1ccnc(Cn2c(-c3ccc(N4CCN5CCC4C5)cc3Cl)nc3c(OC4(C)CC4)ncnc32)c1` (racemic) [Example T493, 8-(4-(1,4-diazabicyclo[3.2.1]octan-4-yl)-2-chlorophenyl)-6-(1-methylcyclopropoxy)-9-((4-methylpyridin-2-yl)methyl)-9H-purine], for which the IC50 under setting [2] was 251 nM.

Regarding `C#CCNC(=O)COc1ccc(-c2nc3c(OC4(C)CC4)ncnc3n2Cc2cc(C)ccn2)c(Cl)c1` [Example T266, 2-(3-chloro-4-(6-(1-methylcyclopropoxy)-9-((4-methylpyridin-2-yl)methyl)-9H-purin-8-yl)phenoxy)-N-(prop-2-yn-1-yl)acetamide], the IC50 under setting [4] was 158 nM.

Take `Cc1ccnc(Cn2c(-c3ccc(C(=O)N[C@@H]4CCOC4)cc3Cl)nc3c(OC4(C)CC4)ncnc32)c1` [Example T316, (R)-3-chloro-4-(6-(1-methylcyclopropoxy)-9-((4-methylpyridin-2-yl)methyl)-9H-purin-8-yl)-N-(tetrahydrofuran-3-yl)benzamide]: the IC50 under setting [1] was 631 nM.

As for `Cc1cc(Cn2c(-c3ccc(CC(N)=O)cc3Cl)nc3c(OC4(C)CC4)ncnc32)ncn1` [Example T19, 2-(3-chloro-4-(6-(1-methylcyclopropoxy)-9-((6-methylpyrimidin-4-yl)methyl)-9H-purin-8-yl)phenyl)acetamide], the IC50 under setting [3] was over 10000 nM.

For the compound `Cc1ccnc(Cn2c(-c3ccc(OCCOCCO)cc3Cl)nc3c(OC4(C)CC4)ncnc32)c1` [Example T233, 2-(2-(3-chloro-4-(6-(1-methylcyclopropoxy)-9-((4-methylpyridin-2-yl)methyl)-9H-purin-8-yl)phenoxy)ethoxy)ethan-1-ol], the IC50 under setting [4] was 158 nM.

On to `Cc1ccnc(Cn2c(-c3ccc(C(=O)NC4(C)COC4)cc3Cl)nc3c(OC4(C)CC4)ncnc32)c1` [Example T317, 3-chloro-4-(6-(1-methylcyclopropoxy)-9-((4-methylpyridin-2-yl)methyl)-9H-purin-8-yl)-N-(3-methyloxetan-3-yl)benzamide], for which, under setting [1], the IC50 is 1000 nM.

With `Cc1ccnc(Cn2c(-c3ccc(O[C@@H]4CCN(C(N)=O)C4)cc3Cl)nc3c(OC4(C)CC4)ncnc32)c1` [Example T344, (R)-3-(3-chloro-4-(6-(1-methylcyclopropoxy)-9-((4-methylpyridin-2-yl)methyl)-9H-purin-8-yl)phenoxy)pyrrolidine-1-carboxamide], the IC50 under setting [1] is 2000 nM.

Regarding `Cc1ccnc(Cn2c(-c3ccc(O[C@H]4CCN(C(=O)CO)C4)cc3Cl)nc3c(OC4(C)CC4)ncnc32)c1` [Example T483, (S)-1-(3-(3-chloro-4-(6-(1-methylcyclopropoxy)-9-((4-methylpyridin-2-yl)methyl)-9H-purin-8-yl)phenoxy)pyrrolidin-1-yl)-2-hydroxyethan-1-one], under setting [2], the IC50 is 631 nM.
